Counter-ions that a name gives are not always drawn. Like-named read-outs stand apart in the source and are kept apart here.
Tests used:
[1] = system: IL-1β action on murine thymocytes; test: Inhibition of IL-1 action (IL-1 assay): suppression of IL-1β + PHA stimulated murine thymocyte proliferation; assay type: cell-based, mouse (C3H/HeN)
Description: The ability of the above compounds to suppress the cell-proliferative effect of IL-1β in vitro (O'Gara, 1990) was examined as described in Example 11. Mouse thymocytes in culture were stimulated with IL-1β in the presence of phytohemagglutinin (PHA) and increasing concentrations of triptolide (control) and triptolide derivatives. The cells were cultured for 72 hours, and during the last 18 hours, incubated with tritiated thymidine. DNA synthesis was assessed by measuring incorporation of radiolabeled thymidine. The results expressed in terms of IC50 (concentration effective to cause 50% suppression of proliferation) are shown in Table 1.
C3H/HeN mouse thymocytes were prepared and the action of IL-1 together with PHA, which stimulate proliferation of thymocyte, was measured using standard techniques (O'Gara, 1990; Mishell, 1980). Three- to six-week old C3H/HeN male mice (Simonson Laboratory, Gilroy, Calif.) were sacrificed by CO2 inhalation. Thymi were removed, separated from adherent non-thymic tissue, homogenized in Hank's balanced salt solution (HBSS, Gibco) using a glass homogenizer, and centrifuged at 200×g for 10 minutes at 15° C. Following an additional wash in HBSS, the thymocytes were resuspended in RPMI 1640 medium containing 50 uM 2-mercaptoethanol, 2 mM glutamine, 1 mM sodium pyruvate, non-essential amino acids 100 U/ml penicillin, 100 μg/ml streptomycin, and 10% heat-inactivated fetal bovine serum.
Cells were cultured in round-bottom 96 well microtiter tissue culture plates, 6×10^5 cells per well, in a volume of 100 μl. Recombinant human IL-1β (R & D Systems #201-LB) together with Phytohemagglutinin P (PHA, Pharmacia) were added to the cells in volume of 25 μl per well to achieve a final concentration of 0.08 ng/ml and 10 μg/ml, respectively. Samples were dissolved in DMSO (10 mg/ml), then diluted in culture medium. Twenty five microliters of the test sample was added to each well to achieve the final compound concentrations for each experiment. Cells with PHA together with IL-1 served as controls. The total volume for each well was 150 μl.
Plates were incubated at 37° C. in a 5% CO2 incubator for 72 hours. Fifty microliters of culture medium containing 0.5 μCi (^3 H)-thymidine (Amersham, 49 Ci/mmol) was added to each well prior to the last 18 hours of incubation. Cells were then harvested and counted. The results were reported as counts per minute (cpm) per 6×10^5 cells.
The following formula was used to calculate the percent of suppression of IL-1 activity, and IC50 (concentration of sample yielding 50% suppression of proliferation) was used to indicate the suppressive activity of the sample.
% suppression of IL-1 activity=(1-sample cpm/(IL-1+PHA control

[2] = system: mixed lymphocyte reaction (spleen cells from female C57BL/6 mice, stimulated with Balb/C spleen cells); test: Mixed lymphocyte reaction (MLR) assay; assay type: cell-based, mouse; settings: 50% suppression of proliferation; for IC50: read-out: MLR Assay IC50
Description: Inhibition of cell proliferation by the subject compounds was assayed in the mixed lymphocyte reaction (MLR) (Bradley, 1980; Mishell, 1980). Spleen cells from female C57BL/6 mice, the "responder" cells, were prepared and co-cultured alone or in the presence of varying concentrations of the test compounds, with irradiated spleen cells prepared from female Balb/C mice, the "stimulator" cells. Prior irradiation of the stimulator cells rendered them unable to proliferate. A sample of the responder cells was also irradiated for use as a control. The non-irradiated responder cells proliferate in the presence of the allogenic stimulator cells. After a 78-hour incubation, tritiated thymidine was added to the mixed cell cultures, and incorporation of the labeled nucleotide into DNA was measured as an index of cell proliferation.
In this study, the responder cells (R) were spleen cells from female C57BL16 mice, and the stimulator cells (S) were spleen cells from female Balb/C mice 6 to 8 weeks of age (Jackson, Bar Harbor, Me.). The spleens were aseptically removed from the mice and placed into 10 ml of cold HBSS in a sterile petri dish. The spleen was cut in half and gently pressed between the frosted ends of 2 sterile microslides. The cell suspension was then filtered through sterile nylon mesh (Nytex, Tetco #HD-3-85) into a 15 ml conical polypropylene centrifuge tube and centrifuged at 200×g for 10 minutes in a Beckman GPR tabletop centrifuge (GH-3.7 Rotor). Following an additional wash in HBSS, the spleen cells were resuspended in RPMI 1640 medium (Gibco) containing 50 uM 2-mercaptoethanol, 2 mM glutamine, 100 U/ml penicillin, 100 μg/ml streptomycin and 10% heat-inactivated fetal bovine serum.
The stimulator cells (S) and part of the responder cells (R) were diluted at 10×10^6 cells/ml and irradiated at 20 cGy with a Cesium Irradiator (Department of Radiation Oncology, Stanford University, California) to inhibit proliferation. The irradiated cells were washed once to remove any toxic free radicals and their products resulting from irradiation. The responder cells (R), irradiated stimulator cells (Sx) and irradiated responder cell (Rx) were all diluted to 4×10^6 cells/ml.
In the assay, 4×10^5 cells of R were cocultured with 4×10^5 cells of Sx in 200 μl of medium in round bottom 96 well tissue culture plates. Fifty micro-liters of test samples at various concentrations were added to the cells. The wells receiving no test samples would get the maximum proliferation. Several controls were used in the assay. The irradiated responder cells (Rx) were also added to the responder cells with and without the test samples. Rx or Sx alone were checked to make sure no proliferation occurred after irradiation. The spontaneous proliferation of R was also measured.
The culture plates were incubated at 37° C. in a 5% CO2 incubator for four days. The cells were labelled with 1 μCi of (^3 H)-thymidine (Amersham, 49 Ci/mmol) in 20 μl of medium for the last 18 hours. Cells were then harvested and counted. The results were reported as counts per minute (cpm) per well. Percent of suppression and IC50 (concentration of sample producing 50% suppression of proliferation) were used to indicate the suppressive activity of the sample. Sample cpm was calculated as (R+Sx+sample)cpm-(R+Rx+sample)cpm; control cpm was calculated as (R+Sx)cpm-(R+Rx)cpm. Percent suppression of MLR activity was calculated as (1-sample cpm/control cpm)×100. IC50 was determined from percent suppression to indicate the suppressive activity of the sample.

[3] = 50% suppression of proliferation; 72 h culture
[4] = read-out: IL-1 Assay IC50; 50% suppression of proliferation; 72 h culture

CC(C)[C@]12O[C@H]1[C@@H]1O[C@]13[C@]1(O[C@H]1C[C@H]1C4=C(CC[C@@]13C)C(=O)OC4)[C@@H]2O [Triptolide, triptolide, reference compound]
inhibition of IL-1β action in words [1]: potent inhibitor of IL-1β action
IC50 ([1]; 50% suppression of proliferation; 72 h culture; read-out: IL-1 Assay IC50): ~5 nM
IC50 ([2]; Mus musculus, Lymphocyte): 0.0009 µg/mL

CC(C)C12OC1C1OC13C1(C)CCC4=C(COC4=O)C1CC1OC13C2OC(=O)CCC(=O)O (stereo not drawn) [YM-262, Triptolide Succinate]
IL-1 Assay IC50 [1, 3]: 0.181 µg/mL
IC50 [1, 4]: 393 nM
MLR Assay IC50 [2]: 0.086 µg/mL
IC50 [2]: 187 nM

CC(C)C12OC1C1OC13C1(C)CCC4=C(COC4=O)C1CC1OC13C2OC(=O)CCC(=O)O (stereo not drawn) [YM-273, Triptolide Succinate Tris Salt]
IL-1 Assay IC50 [1, 3]: 0.462 µg/mL
IC50 [1, 4]: 800 nM
MLR Assay IC50 [2]: 0.18 µg/mL
IC50 [2]: 310 nM

CC(C)C12OC1C1OC13C1(C)CCC4=C(COC4=O)C1CC1OC13C2OC(=O)CCC(=O)O (stereo not drawn) [YM-274, Triptolide Succinate Sodium Salt]
IL-1 Assay IC50 ([1]; 50% suppression of proliferation; 72 h culture; Succinate Sodium Salt): 0.181 µg/mL
IC50 ([1]; read-out: IL-1 Assay IC50; 50% suppression of proliferation; 72 h culture; Succinate Sodium Salt): 376 nM
MLR Assay IC50 ([2]; Succinate Sodium Salt): 0.09 µg/mL
IC50 ([2]; Succinate Sodium Salt): 187 nM

Source: US5962516A, “Immunosuppressive compounds and methods” (priority 1999, dated 1999)
